Literature values as cited in patent publication US20060234297A1, “Screening method” (priority 2003, published 2006).

Columns and labels:
[1] = test system: mouse macrophages stimulated with phorbol ester or tumor necrosis factor (TNF-α)
[2] = test system: progression of arteriosclerosis; conditions: clinical study

In the case of `CCOC(=O)C1=C(C)NC(C)=C(C(=O)OCC)C1c1ccccc1/C=C/C(=O)OC(C)(C)C` [lacidipine], the “MMP-9 secretion and production” value [1] is listed as “suppressed MMP-9 secretion and production” and the “effect on the progression of arteriosclerosis” value [2] is listed as “suppressive effect on the progression of arteriosclerosis”.
